Measured values from the supplement of paper PMC10307832.

Experiments:
Test in all cases: relative viability (nuclei count vs DMSO), 5 days (fraction); higher = more cells survive
[1] = tested on: NCI-H1651
Procedure, shortened: (§1)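 Nuclei were stained with Hoechst during a one-step fixation (final 0.05% Triton X-100, 1% formaldehyde, 1 ug/ml Hoechst) carried out 5 days after dosing, then counted on 4× images. The cells, lung cancer lines in 1536-well plates, had been dosed by pin tool the day after seeding with one drug alone or a fixed anchor-drug dose plus five library-drug doses (not always all listed) in √10 steps. Relative viability is the nuclei count in treated wells divided by that in vehicle wells, and each value is the median of duplicate plates.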

[2] = tested on: SW 1573
Procedure, shortened: as §1

[3] = tested on: NCI-H1944
Procedure, shortened: as §1

[4] = tested on: ChaGo-K-1
Procedure, shortened: as §1

[5] = tested on: NCI-H2087
Procedure, shortened: as §1

[6] = tested on: NCI-H3122
Procedure, shortened: as §1

[7] = tested on: LCLC-97TM1
Procedure, shortened: as §1

[8] = tested on: EMC-BAC-2
Procedure, shortened: as §1

[9] = tested on: PC-14
Procedure, shortened: as §1

[10] = tested on: UMC-11
Procedure, shortened: as §1

[11] = tested on: NCI-H2405
Procedure, shortened: as §1

[12] = tested on: NCI-H661
Procedure, shortened: as §1

[13] = tested on: NCI-H650
Procedure, shortened: as §1

[14] = tested on: NCI-H596
Procedure, shortened: as §1

[15] = tested on: NCI-H2023
Procedure, shortened: as §1

[16] = tested on: NCI-H1915
Procedure, shortened: as §1

[17] = tested on: NCI-H322M
Procedure, shortened: as §1

[18] = tested on: NCI-H2126
Procedure, shortened: as §1

[19] = tested on: NCI-H838
Procedure, shortened: as §1

[20] = tested on: NCI-H1734
Procedure, shortened: as §1

[21] = tested on: NCI-H441
Procedure, shortened: as §1

[22] = tested on: LXF-289
Procedure, shortened: as §1

[23] = tested on: NCI-H1793
Procedure, shortened: as §1

[24] = tested on: NCI-H1395
Procedure, shortened: as §1

Nc1cccc2c1CN(C1CCC(=O)NC1=O)C2=O (configuration not stated) [Lenalidomide] + CS(=O)(=O)N1CCN(Cc2cc3nc(-c4cccc5[nH]ncc45)nc(N4CCOCC4)c3s2)CC1 [Pictilisib] (partner 1 µM)
relative viability ([1]; first compound 0.253 µM): 0.674 | relative viability ([1]; first compound 0.8 µM): 0.574 | relative viability ([1]; first compound 2.53 µM): 0.735 | relative viability ([1]; first compound 8 µM): 0.691 | relative viability ([2]; first compound 0.253 µM): 0.518 | relative viability ([2]; first compound 0.8 µM): 0.483 | relative viability ([2]; first compound 2.53 µM): 0.504 | relative viability ([2]; first compound 8 µM): 0.524 | relative viability ([3]; first compound 0.253 µM): 0.382 | relative viability ([3]; first compound 0.8 µM): 0.309 | relative viability ([3]; first compound 2.53 µM): 0.319 | relative viability ([3]; first compound 8 µM): 0.287 | relative viability ([4]; first compound 0.253 µM): 0.791 | relative viability ([4]; first compound 2.53 µM): 0.739 | relative viability ([4]; first compound 8 µM): 0.625 | relative viability ([5]; first compound 0.253 µM): 0.982 | relative viability ([5]; first compound 0.8 µM): 0.436 | relative viability ([5]; first compound 2.53 µM): 0.972 | relative viability ([5]; first compound 8 µM): 0.732 | relative viability ([6]; first compound 0.253 µM): 0.653 | relative viability ([6]; first compound 0.8 µM): 0.733 | relative viability ([6]; first compound 2.53 µM): 0.589 | relative viability ([6]; first compound 8 µM): 0.414 | relative viability ([7]; first compound 0.8 µM): 0.182 | relative viability ([7]; first compound 2.53 µM): 0.261 | relative viability ([7]; first compound 8 µM): 0.165 | relative viability ([8]; first compound 0.253 µM): 0.532 | relative viability ([8]; first compound 0.8 µM): 0.474 | relative viability ([8]; first compound 2.53 µM): 0.535 | relative viability ([8]; first compound 8 µM): 0.411 | relative viability ([9]; first compound 0.253 µM): 0.691 | relative viability ([9]; first compound 0.8 µM): 0.618 | relative viability ([9]; first compound 2.53 µM): 0.719 | relative viability ([9]; first compound 8 µM): 0.713 | relative viability ([10]; first compound 0.253 µM): 0.893 | relative viability ([10]; first compound 0.8 µM): 0.512 | relative viability ([10]; first compound 2.53 µM): 0.819 | relative viability ([10]; first compound 8 µM): 0.627 | relative viability ([11]; first compound 0.253 µM): 0.423 | relative viability ([11]; first compound 0.8 µM): 0.438 | relative viability ([11]; first compound 2.53 µM): 0.37 | relative viability ([11]; first compound 8 µM): 0.269 | relative viability ([12]; first compound 0.253 µM): 0.59 | relative viability ([12]; first compound 0.8 µM): 0.369 | relative viability ([12]; first compound 2.53 µM): 0.44 | relative viability ([12]; first compound 8 µM): 0.329 | relative viability ([13]; first compound 0.253 µM): 0.822 | relative viability ([13]; first compound 2.53 µM): 0.911 | relative viability ([13]; first compound 8 µM): 0.739 | relative viability ([14]; first compound 0.253 µM): 0.382 | relative viability ([14]; first compound 0.8 µM): 0.359 | relative viability ([14]; first compound 2.53 µM): 0.381 | relative viability ([14]; first compound 8 µM): 0.365 | relative viability ([15]; first compound 0.253 µM): 0.254 | relative viability ([15]; first compound 0.8 µM): 0.176 | relative viability ([15]; first compound 2.53 µM): 0.268 | relative viability ([15]; first compound 8 µM): 0.187 | relative viability ([16]; first compound 0.253 µM): 0.9 | relative viability ([16]; first compound 0.8 µM): 0.793 | relative viability ([16]; first compound 2.53 µM): 1 | relative viability ([16]; first compound 8 µM): 0.857 | relative viability ([17]; first compound 0.253 µM): 0.511 | relative viability ([17]; first compound 0.8 µM): 0.596 | relative viability ([17]; first compound 2.53 µM): 0.546 | relative viability ([17]; first compound 8 µM): 0.49 | relative viability ([18]; first compound 0.253 µM): 0.501 | relative viability ([18]; first compound 0.8 µM): 0.423 | relative viability ([18]; first compound 2.53 µM): 0.458 | relative viability ([18]; first compound 8 µM): 0.421 | relative viability ([19]; first compound 0.253 µM): 0.505 | relative viability ([19]; first compound 0.8 µM): 0.318 | relative viability ([19]; first compound 2.53 µM): 0.518 | relative viability ([19]; first compound 8 µM): 0.387 | relative viability ([20]; first compound 0.253 µM): 0.438 | relative viability ([20]; first compound 0.8 µM): 0.489 | relative viability ([20]; first compound 2.53 µM): 0.465 | relative viability ([20]; first compound 8 µM): 0.329 | relative viability ([21]; first compound 0.253 µM): 0.383 | relative viability ([21]; first compound 0.8 µM): 0.453 | relative viability ([21]; first compound 2.53 µM): 0.522 | relative viability ([21]; first compound 8 µM): 0.433 | relative viability ([22]; first compound 0.253 µM): 0.835 | relative viability ([22]; first compound 0.8 µM): 0.827 | relative viability ([22]; first compound 2.53 µM): 0.864 | relative viability ([22]; first compound 8 µM): 0.845 | relative viability ([23]; first compound 0.253 µM): 0.554 | relative viability ([23]; first compound 0.8 µM): 0.289 | relative viability ([23]; first compound 2.53 µM): 0.409 | relative viability ([23]; first compound 8 µM): 0.228 | relative viability ([24]; first compound 0.253 µM): 0.682 | relative viability ([24]; first compound 2.53 µM): 0.647 | relative viability ([24]; first compound 8 µM): 0.569
